Test results published in PMC6199744, “Development of Chemical Proteomics for the Folateome and Analysis of the Kinetoplastid Folateome” (ACS Infectious Diseases, 2018).
Where two headings read alike, the source gives them in different places.

Test system: T. brucei lysate proteins
Type: binding, Trypanosoma brucei
Settings: vehicle control = 1

SMILES: Nc1nc2c(c(=O)[nH]1)N(C=O)C(CNc1ccc(C(=O)N[C@@H](CCC(=O)O)C(=O)O)cc1)CN2 (stereo partly drawn) [LEU, leucovorin]
- fold change (protein TB427.06.3630 SPHINGOSINE 1-PHOSPHATE LYASE, PUTATIVE): 0.94
- fold change (protein TB427.06.3670 PAR[…] COMPONENT, PUTATIVE): 0.77
- fold change vs vehicle control (protein TB427.06.4480 VALYL-TRNA SYNTHETASE, PUTATIVE): 1.07
- fold change (protein TB427.06.4740 IMPORTIN-ALPHA RE-EXPORTER PROTEIN, PUTATIVE): 1.22
- fold change (protein TB427.06.700 ALANYL-TRNA SYNTHETASE, PUTATIVE): 0.94
- fold change vs vehicle control (protein TB427.07.1300 PROTEIN DISULFIDE ISOMERASE, PUTATIVE): 1.76
- fold change (protein TB427.07.1420 HY[…], CONSERVED): 0.96
- fold change (protein TB427.07.2340 40S RIBOSOMAL PROTEIN S15, PUTATIVE): 0.96
- fold change vs vehicle control (protein TB427.07.3160 DYNEIN HEAVY CHAIN, CYTOSOLIC, PUTATIVE): 0.86
- fold change (protein TB427.07.3530 HY[…], CONSERVED): 0.87
- fold change (protein TB427.07.4180 FATTY ACID ELONGASE, PUTATIVE): 0.95
- fold change (protein TB427.07.4970 GLUTAMINE SYNTHETASE, PUTATIVE): 0.91
- fold change vs vehicle control (protein TB427.07.7500 THYMINE-7-HYDROXYLASE, PUTATIVE): 0.97
- fold change (protein TB427.08.2060 HY[…], CONSERVED): 0.77
- fold change (protein TB427.08.3490 HY[…], CONSERVED): 1
- fold change (protein TB427.08.3520 HY[…], CONSERVED): 0.94
- fold change (protein TB427.08.3870 HY[…], CONSERVED): 1.66
- fold change (protein TB427.08.5460 FLAGELLAR CALCIUM-BINDING PROTEIN): 1.21
- fold change (protein TB427.08.5760 HY[…], CONSERVED): 0.93
- fold change (protein TB427.08.6390 LYSOPHOSPHOLIPASE, PUTATIVE): 1.26
- fold change (protein TB427.08.650 CATION-TR[…], PUTATIVE): 0.8
- fold change (protein TB427.10.10020 HY[…], CONSERVED): 0.93
- fold change (protein TB427.10.10350 PROTEIN KINASE, PUTATIVE): 0.95
- fold change (protein TB427.10.10360 MICROTUBULE-[…], PUTATIVE): 0.82
- fold change (protein TB427.10.1060 T-COMPLEX PROTEIN 1, DELTA SUBUNIT, PUTATIVE): 1.18
- fold change vs vehicle control (protein TB427.10.10610 PROTEIN TYROSINE PHOSPHATASE, PUTATIVE): 2.13
- fold change vs vehicle control (protein TB427.10.1100 60S RIBOSOMAL PROTEIN L9, PUTATIVE): 1.1
- fold change vs vehicle control (protein TB427.10.11760 PUMILIO/PUF RNA BINDING PROTEIN 6): 0.98
- fold change (protein TB427.10.12710 HEAT SHOCK PROTEIN, PUTATIVE): 2.54
- fold change vs vehicle control (protein TB427.10.12820 HY[…], CONSERVED): 1.13
- fold change (protein TB427.10.14140 PYRUVATE KINASE 1): 1.34
- fold change vs vehicle control (protein TB427.10.14470 INTR[…] PROTEIN IFT140, PUTATIVE): 1.07
- fold change (protein TB427.10.14890 C-TERMINAL MOTOR KINESIN, PUTATIVE): 1.36
- fold change (protein TB427.10.2020 HEXOKINASE): 1.68
- fold change (protein TB427.10.2290 CHAPERONE PROTEIN DNAJ, PUTATIVE): 0.89
- fold change (protein TB427.10.2350 PYRUVATE DEH[…] E3 BINDING PROTEIN, PUTATIVE): 0.89
- fold change (protein TB427.10.4610 […]-MANNOSE SYNTHASE, PUTATIVE): 0.94
- fold change vs vehicle control (protein TB427.10.5810 HY[…], CONSERVED): 2.19
- fold change (protein TB427.10.5840 T[…] 1-BETA, PUTATIVE): 1.21
- fold change (protein TB427.10.5850 HY[…], CONSERVED): 0.84
- fold change (protein TB427.10.6150 […]/BEIGE PROTEIN, PUTATIVE): 0.73
- fold change (protein TB427.10.6310 MAJOR VAULT PROTEIN, PUTATIVE): 0.82
- fold change (protein TB427.10.730 ATP SYNTHASE, PUTATIVE): 0.81
- fold change vs vehicle control (protein TB427.10.7410 SUCCINYL-COA LIGASE GDP-FORMING] BETA-CHAIN, PUTATIVE): 1.13
- fold change vs vehicle control (protein TB427.10.7630 HY[…], CONSERVED): 1.07
- fold change vs vehicle control (protein TB427.10.8230 PROTEIN DISULFIDE ISOMERASE): 2.42
- fold change (protein TB427.10.8910 HY[…], CONSERVED): 0.93
- fold change vs vehicle control (protein TB927.10.12700 PYRUVATE DEHYDROGENASE E1 ALPHA SUBUNIT, PUTATIVE): 0.9
- fold change (protein TB927.10.12740 HY[…], CONSERVED,ZINC FINGER PROTEIN FAMILY MEMEBER, PUTATIVE): 1.1
- fold change (protein TB927.10.12840 MIT[…] PROTEIN, PUTATIVE): 0.92
- fold change vs vehicle control (protein TB927.10.13290 ETHANOLAMINE PHOSPHOTRANSFERASE (EPT)): 0.95
- fold change vs vehicle control (protein TB927.10.14800 PROTEIN KINASE, PUTATIVE): 1.13
- fold change (protein TB927.10.1550 […]-ATP-ASE SUBUNIT 5): 0.94
- fold change vs vehicle control (protein TB927.10.2890 ENOLASE): 1.93
- fold change (protein TB927.10.2980 […]-ATPASE SUBUNIT 11): 0.91
- fold change vs vehicle control (protein TB927.10.4570 […] 2): 1.87
- fold change (protein TB927.10.4690 DYNEIN LIGHT CHAIN, PUTATIVE): 0.96
- fold change (protein TB927.10.5370 40S RIBOSOMAL PROTEIN S10, PUTATIVE): 1
- fold change vs vehicle control (protein TB927.10.540 ATP-DEPENDENT DEAD/H RNA HELICASE, PUTATIVE): 1.4
- fold change (protein TB927.10.5500 HY[…], CONSERVED): 0.99
- fold change vs vehicle control (protein TB927.10.560 40S RIBOSOMAL PROTEINS S11, PUTATIVE): 1.35
- fold change (protein TB927.10.6050 CLATHRIN HEAVY CHAIN): 0.82
- fold change vs vehicle control (protein TB927.10.8030 HY[…], CONSERVED): 0.97
- fold change vs vehicle control (protein TB927.10.8160 HY[…], CONSERVED): 0.94
- fold change (protein TB927.2.100 RETRO[…] SPOT (RHS) PROTEIN, PUTATIVE,RETRO[…] SPOT PROTEIN 1 (RHS1), PUTATIVE): 1.21
- fold change vs vehicle control (protein TB927.2.2440 […]-ATPASE SUBUNIT 6): 1.21
- fold change (protein TB927.2.3800 MRNA […], PUTATIVE): 0.96
- fold change (protein TB927.3.1240 PROTEIN PHOSPHATASE 2A, PUTATIVE): 0.82
- fold change (protein TB927.3.1840 3-OXO-5-ALPHA-STEROID 4-DEHYDROGENASE, PUTATIVE): 0.93
- fold change vs vehicle control (protein TB927.3.2960 INOSINE-ADENOSINE-GUANOSINE-[…]): 2.01
- fold change (protein TB927.3.3190 SERINE/THREONINE-PROTEIN KINASE, PUTATIVE): 0.93
- fold change vs vehicle control (protein TB927.3.3450 ADP-RI[…]-LIKE PROTEIN 3A, PUTATIVE): 2.74
- fold change vs vehicle control (protein TB927.3.3490 HIGH MOBILITY GROUP PROTEIN, PUTATIVE): 1.29
- fold change vs vehicle control (protein TB927.3.5120 HY[…], CONSERVED (Ankyrin repeats (3 copies), putative)): 1.41
- fold change vs vehicle control (protein TB927.3.740 HY[…], CONSERVED): 0.99
- fold change vs vehicle control (protein TB927.4.2740 HY[…], CONSERVED (p25-alpha, putative)): 2.04
- fold change (protein TB927.4.3590 T[…] 1-BETA, PUTATIVE): 1.21
- fold change vs vehicle control (protein TB927.4.3820 HY[…], CONSERVED): 0.99
- fold change (protein TB927.5.1630 HY[…], CONSERVED): 0.83
- fold change vs vehicle control (protein TB927.5.4440 DYNEIN LIGHT CHAIN, PUTATIVE): 1.1
- fold change (protein TB927.6.2200 HY[…], CONSERVED): 0.98
- fold change vs vehicle control (protein TB927.6.3740 HEAT SHOCK 70 KDA PROTEIN, MIT[…], PUTATIVE): 1.13
- fold change (protein TB927.6.4980 40S RIBOSOMAL PROTEIN S14): 0.97
- fold change vs vehicle control (protein TB927.7.1750 60S RIBOSOMAL PROTEIN L7, PUTATIVE): 1.49
- fold change vs vehicle control (protein TB927.7.4470 HY[…], CONSERVED): 1.31
- fold change vs vehicle control (protein TB927.7.7430 ATP SYNTHASE ALPHA CHAIN, MIT[…]): 1.2
- fold change (protein TB927.8.4330 SMALL GTP-BINDING PROTEIN RAB11): 0.97
- fold change (protein TB927.8.4770 SMALL GTP-BINDING PROTEIN RAB18): 0.93
- fold change vs vehicle control (protein TB927.8.4810 PROHIBITIN 1): 0.99
- fold change (protein TB-292 MEMBRANE ASSOCIATED PROTEIN): 0.88
